From patent publication US6670363B1, “Azole compounds as therapeutic agents for fungal infections” (Ranbaxy Laboratories Limited, priority 2000, dated 2003)
≈ marks a conversion by molar mass, not a printed value.

Experiments:
Candida = test: In vitro MIC, NCCLS M27A, Candida species; format: cell-based; set-up: MIC, Candida albicans 1.549 / MIC, Candida albicans Y-01-19 / MIC, C. krusei 766-1 / MIC, C. krusei Q. C / MIC, Candida tropicalis ATCC / MIC, C. glabrata 90030: unit not given beside the values; MIC, Candida albicans A 26 / MIC, C. parapsilosis Q. C.: unit not given here; conditions: for MIC, C. glabrata 90030: C. glabrata strain 90030; for MIC, C. krusei 766-1: C. krusei strain 766-1; for MIC, C. krusei Q. C: C. krusei strain Q. C; for MIC, C. parapsilosis Q. C.: C. parapsilosis strain Q. C.; for MIC, Candida albicans 1.549: Candida albicans strain 1.549; for MIC, Candida albicans A 26: Candida albicans strain A 26; for MIC, Candida albicans Y-01-19: Candida albicans strain Y-01-19
Cryptococcus neoformans = test: In vitro MIC, NCCLS M27A, Cryptococcus neoformans; format: cell-based; set-up: MIC, C. neoformans I: unit not given beside the values; MIC, C. neoformans M 106: unit not given here; conditions: for MIC, C. neoformans I: C. neoformans strain I; for MIC, C. neoformans M 106: C. neoformans strain M 106
Histoplasma capsulatum = format: cell-based
A. fumigatus s 1008 = test: In vitro MIC, NCCLS M38P broth method (RPMI 1640/MOPS pH7), Aspergillus fumigatus; format: cell-based; conditions: A. fumigatus strain 1008

SMILES | MIC, C. glabrata 90030 (Candida) | MIC, C. krusei 766-1 (Candida) | MIC, C. krusei Q. C (Candida) | MIC, C. parapsilosis Q. C. (Candida) | MIC, Candida albicans 1.549 (Candida) | MIC, Candida albicans A 26 (Candida) | MIC, Candida albicans Y-01-19 (Candida) | MIC, Candida tropicalis ATCC (Candida) | melting point [°C] | MIC, C. neoformans I (Cryptococcus neoformans) | MIC, C. neoformans M 106 (Cryptococcus neoformans) | MIC, H. capsulatum (Histoplasma capsulatum) [µg/mL] | MIC, A. fumigatus 1008 (A. fumigatus s 1008)
Cc1ccc(Cl)cc1N1CCN(c2ccc(-n3cnn(CC(O)(Cn4cncn4)c4ccc(F)cc4F)c3=O)cc2)CC1 (stereo not drawn) [Compound 48, 2-[2-(2,4-Difluorophenyl)-2-hydroxy-3-(1H-1,2,4-triazol-1-yl)propyl]-4-{4-[4-(5-chloro-2-methylphenyl)-1-piperazinyl]phenyl}-3-(2H,4H)-1,2,4-triazolone] | 1.00 | 1.00 | 0.50 | 0.12 | 0.50 | <0.03 | 0.50 | <0.03 | 82 to 87 | <0.03 | 0.06 | 0.25 (≈ 0.412 µM) | >16
Cc1ccc(N2CCN(c3ccc(-n4cnn(CC(O)(Cn5cncn5)c5ccc(F)cc5F)c4=O)cc3)CC2)cc1Cl (stereo not drawn) [Compound 49, 2-[2-(2,4-Difluorophenyl)-2-hydroxy-3-(1H-1,2,4-triazol-1-yl)propyl]-4-{4-[4-(3-chloro-4-methylphenyl)-1-piperazinyl]phenyl}-3-(2H,4H)-1,2,4-triazolone] | 0.25 | 0.25 | 0.06 | <0.03 | <0.03 | <0.03 | <0.03 | <0.03 | 189 to 201 | <0.03 | <0.03 | < 0.03 | 4.00
O=c1n(-c2ccc(N3CCN(c4ccc(Cl)cc4Cl)CC3)cc2)cnn1CC(O)(Cn1cncn1)c1ccc(F)cc1F (stereo not drawn) [Compound 50, 2-[2-(2,4-Difluorophenyl)-2-hydroxy-3-(1H-1,2,4-triazol-1-yl)propyl]-4-{4-[4-(2,4-dichlorophenyl)-1-piperazinyl]phenyl}-3-(2H,4H)-1,2,4-triazolone] | 0.50 | 0.50 | 0.25 | <0.03 | 0.12 | <0.03 | 0.12 | <0.03 | 97 to 99 | <0.03 | <0.03 | < 0.03 | 2.00
O=c1n(-c2ccc(N3CCN(c4cccc(C(F)(F)F)c4)CC3)cc2)cnn1CC(O)(Cn1cncn1)c1ccc(F)cc1F (stereo not drawn) [Compound 51, 2-[2-(2,4-Difluorophenyl)-2-hydroxy-3-(1H-1,2,4-triazol-1-yl)propyl]-4-{4-[4-(3-trifluoromethylphenyl)-1-piperazinyl]phenyl}-3-(2H,4H)-1,2,4-triazolone] | 1.00 | 1.00 | 0.25 | 0.06 | 0.25 | <0.03 | 0.25 | <0.03 | 166 to 168 | <0.03 | <0.03 | < 0.03 | >16
O=c1n(-c2ccc(N3CCN(c4ccc(F)cc4F)CC3)cc2)cnn1CC(O)(Cn1cncn1)c1ccc(F)cc1F (stereo not drawn) [Compound 52, 2-[2-(2,4-Difluorophenyl)-2-hydroxy-3-(1H-1,2,4-triazol-1-yl)propyl]-4-{4-[4-(2,4-difluorophenyl)-1-piperazinyl]phenyl}-3-(2H,4H)-1,2,4-triazolone] | 1.00 | 4.00 | 0.50 | <0.03 | 0.06 | <0.03 | 0.12 | <0.03 | 157 to 158 | <0.03 | <0.03 | < 0.03 | >16
O=c1n(-c2ccc(N3CCN(c4ccc(F)c(Cl)c4)CC3)cc2)cnn1CC(O)(Cn1cncn1)c1ccc(F)cc1F (stereo not drawn) [Compound 53, 2-[2-(2,4-Difluorophenyl)-2-hydroxy-3-(1H-1,2,4-triazol-1-yl)propyl]-4-{4-[4-(3-chloro-4-fluorophenyl)-1-piperazinyl]phenyl}-3-(2H,4H)-1,2,4-triazolone] | 0.50 | 0.50 | 0.12 | <0.03 | 0.06 | <0.03 | <0.03 | <0.03 | 182 to 185 | <0.03 | <0.03 | < 0.03 | 4.00
Cc1ccc(N2CCN(c3ccc(-n4cnn(CC(O)(Cn5cncn5)c5ccc(F)cc5F)c4=O)cc3)CC2)c(C)c1 (stereo not drawn) [Compound 54, 2-[2-(2,4-Difluorophenyl)-2-hydroxy-3-(1H-1,2,4-triazol-1-yl)propyl]-4-{4-[4-(2,4-dimethylphenyl)-1-piperazinyl]phenyl}-3-(2H,4H)-1,2,4-triazolone] | 1.00 | 0.50 | 0.12 | <0.03 | 8.00 | <0.03 | 0.12 | <0.03 | 76 to 77 | <0.03 | <0.03 | 0.06 (≈ 0.102 µM) | 2.00
O=c1n(-c2ccc(N3CCN(c4ccc(F)c(F)c4)CC3)cc2)cnn1CC(O)(Cn1cncn1)c1ccc(F)cc1F (stereo not drawn) [Compound 55, 2-[2-(2,4-Difluorophenyl)-2-hydroxy-3-(1H-1,2,4-triazol-1-yl)propyl]-4-{4-[4-(3,4-difluorophenyl)-1-piperazinyl]phenyl}-3-(2H,4H)-1,2,4-triazolone] | 0.25 | 1.00 | 0.12 | <0.03 | 0.03 | <0.03 | 0.03 | <0.03 | 117 to 118 | <0.03 | 0.02 | 0.004 (≈ 0.00673 µM) | >16
Cc1ccc(N2CCN(c3ccc(-n4cnn(CC(O)(Cn5cncn5)c5ccc(F)cc5F)c4=O)cc3)CC2)cc1C (stereo not drawn) [Compound 56, 2-[2-(2,4-Difluorophenyl)-2-hydroxy-3-(1H-1,2,4-triazol-1-yl)propyl]-4-{4-[4-(3,4-dimethylphenyl)-1-piperazinyl]phenyl}-3-(2H,4H)-1,2,4-triazolone] | 0.25 | 1.00 | 0.25 | <0.03 | 0.06 | <0.03 | 0.03 | <0.03 | 136 to 137 | <0.03 | 0.03 | 0.004 (≈ 0.00682 µM) | >16
